Measurements reported in ChEMBL document CHEMBL5390248, “Design, synthesis and anticancer activity evaluation of 4-(3-1H-indazolyl)amino quinazoline derivatives as PAK4 inhibitors” (Bioorg Med Chem, 2023).
One block for each molecule: values may come before it.

Key:
A549 [1] = experiment: Induction of apoptosis in human A549 cells assessed as viable cells at 0.5 uM measured after 24 hrs by AnnexinV FITC/propidium iodide staining based flow cytometry method (reference value: 98.7 %); format: functional; settings: read-out: Activity
A549 [2] = experiment: Induction of apoptosis in human A549 cells assessed as viable cells at 1 uM measured after 24 hrs by AnnexinV-FITC/propidium iodide staining based flow cytometry method (reference value: 98.7 %); format: functional; settings: read-out: Activity
A549 [3] = experiment: Induction of apoptosis in human A549 cells assessed as viable cells at 3 uM measured after 24 hrs by AnnexinV-FITC/propidium iodide staining based flow cytometry method (reference value: 98.7 %); format: functional; settings: read-out: Activity
A549 [4] = experiment: Induction of apoptosis in human A549 cells assessed as early apoptotic cells at 0.5 uM measured after 24 hrs by AnnexinV-FITC/propidium iodide staining based flow cytometry method (reference value: 0.049 %); format: functional
A549 [5] = experiment: Induction of apoptosis in human A549 cells assessed as early apoptotic cells at 1 uM measured after 24 hrs by AnnexinV-FITC/propidium iodide staining based flow cytometry method (reference value: 0.049 %); format: functional
A549 [6] = experiment: Induction of apoptosis in human A549 cells assessed as early apoptotic cells at 3 uM measured after 24 hrs by AnnexinV-FITC/propidium iodide staining based flow cytometry method (reference value: 0.049 %); format: functional
A549 [7] = experiment: Induction of apoptosis in human A549 cells assessed as late apoptotic cells at 0.5 uM measured after 24 hrs by AnnexinV-FITC/propidium iodide staining based flow cytometry method (reference value: 0.12 %); format: functional
A549 [8] = experiment: Induction of apoptosis in human A549 cells assessed as late apoptotic cells at 1 uM measured after 24 hrs by AnnexinV-FITC/propidium iodide staining based flow cytometry method (reference value: 0.12 %); format: functional
A549 [9] = experiment: Induction of apoptosis in human A549 cells assessed as late apoptotic cells at 3 uM measured after 24 hrs by AnnexinV-FITC/propidium iodide staining based flow cytometry method (reference value: 0.12 %); format: functional
A549 [10] = experiment: Induction of apoptosis in human A549 cells assessed as necrotic cells at 0.5 uM measured after 24 hrs by AnnexinV-FITC/propidium iodide staining based flow cytometry method (reference value: 1.11 %); format: functional
A549 [11] = experiment: Induction of apoptosis in human A549 cells assessed as necrotic cells at 1 uM measured after 24 hrs by AnnexinV-FITC/propidium iodide staining based flow cytometry method (reference value: 1.11 %); format: functional
A549 [12] = experiment: Induction of apoptosis in human A549 cells assessed as necrotic cells at 3 uM measured after 24 hrs by AnnexinV-FITC/propidium iodide staining based flow cytometry method (reference value: 1.11 %); format: functional
A549 [13] = experiment: Induction of cell cycle arrest in human A549 cells assessed as accumulation of G1 phase cells at 0.5 uM measured for 24 hrs by PI staining based flow cytometric analysis (reference value: 27.5 % ); format: functional
A549 [14] = experiment: Induction of cell cycle arrest in human A549 cells assessed as accumulation of G1 phase cells at 1 uM measured for 24 hrs by PI staining based flow cytometric analysis (reference value: 27.5 % ); format: functional
A549 [15] = experiment: Induction of cell cycle arrest in human A549 cells assessed as accumulation of G1 phase cells at 3 uM measured for 24 hrs by PI staining based flow cytometric analysis (reference value: 27.5 % ); format: functional
A549 [16] = experiment: Induction of cell cycle arrest in human A549 cells assessed as accumulation of S phase cells at 0.5 uM measured for 24 hrs by PI staining based flow cytometric analysis (reference value: 35.3 % ); format: functional
A549 [17] = experiment: Induction of cell cycle arrest in human A549 cells assessed as accumulation of S phase cells at 1 uM measured for 24 hrs by PI staining based flow cytometric analysis (reference value: 35.3 % ); format: functional
A549 [18] = experiment: Induction of cell cycle arrest in human A549 cells assessed as accumulation of S phase cells at 3 uM measured for 24 hrs by PI staining based flow cytometric analysis (reference value: 35.3 % ); format: functional
A549 [19] = experiment: Induction of cell cycle arrest in human A549 cells assessed as accumulation of G2 phase cells at 0.5 uM measured for 24 hrs by PI staining based flow cytometric analysis (reference value: 32.4 % ); format: functional
A549 [20] = experiment: Induction of cell cycle arrest in human A549 cells assessed as accumulation of G2 phase cells at 1 uM measured for 24 hrs by PI staining based flow cytometric analysis (reference value: 32.4 % ); format: functional
A549 [21] = experiment: Induction of cell cycle arrest in human A549 cells assessed as accumulation of G2 phase cells at 3 uM measured for 24 hrs by PI staining based flow cytometric analysis (reference value: 32.4 % ); format: functional
[22] = Antiproliferative activity against HEK293T cells assessed as inhibition of cell growth incubated for 24 hrs by CCK8 assay; format: toxicity, cell-based, HEK-293T; settings: human
[23] = biological target: T1, Serine/threonine-protein kinase PAK 4 (Homo sapiens, UniProt O96013); experiment: Inhibition of PAK4 (unknown origin) using lipid substrate at 100 nM incubated for 40 mins in presence of ATP by ADP-Glo plus luminescence kinase assay relative to control
Target sequence in this assay (O96013 whole entry, looked up): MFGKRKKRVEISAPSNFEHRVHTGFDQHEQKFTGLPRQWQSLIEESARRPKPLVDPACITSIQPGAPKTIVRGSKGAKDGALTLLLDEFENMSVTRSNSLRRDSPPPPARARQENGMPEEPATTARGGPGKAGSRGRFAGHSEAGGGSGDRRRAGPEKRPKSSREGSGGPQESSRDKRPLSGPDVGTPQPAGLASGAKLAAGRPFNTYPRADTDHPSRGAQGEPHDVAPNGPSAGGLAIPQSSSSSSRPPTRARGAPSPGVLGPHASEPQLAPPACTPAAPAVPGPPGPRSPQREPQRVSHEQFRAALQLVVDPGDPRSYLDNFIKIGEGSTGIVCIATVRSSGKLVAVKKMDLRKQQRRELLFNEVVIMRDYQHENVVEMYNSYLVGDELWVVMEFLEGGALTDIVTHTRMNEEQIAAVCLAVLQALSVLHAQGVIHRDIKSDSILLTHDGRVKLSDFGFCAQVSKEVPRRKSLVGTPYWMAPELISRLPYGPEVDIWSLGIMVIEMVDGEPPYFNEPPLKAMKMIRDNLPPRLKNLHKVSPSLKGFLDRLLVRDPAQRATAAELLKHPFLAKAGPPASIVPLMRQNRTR

[24] = biological target: T1, Serine/threonine-protein kinase PAK 4; experiment: Inhibition of PAK4 (unknown origin) using lipid substrate incubated for 40 mins in presence of ATP by ADP-Glo plus luminescence kinase assay
Target sequence in this assay (O96013 whole entry): as the sequence (O96013 whole entry, looked up) above

A549 [25] = experiment: cells; settings: Homo sapiens, A549, 24 h
A549 [26] = experiment: cells; settings: Homo sapiens, A549, 72 h
A549 [27] = experiment: Antiproliferative activity against human A549 cells assessed as inhibition of cell growth incubated for 72 hrs by CCK8 assay; format: functional, cell-based; settings: A549, 72 h

Compound: CC(C)[C@@H](N)CNC(=O)c1nc(Nc2n[nH]c3ccccc23)c2cc(Cl)ccc2n1
viability at 0.5 µM (A549 [1]): 81.6%
viability at 1 µM (A549 [2]): 64.2%
viability at 3 µM (A549 [3]): 50.5%
Activity (A549 [4]): 15.1%
Activity (A549 [5]): 27%
Activity (A549 [6]): 41%
Activity (A549 [7]): 1.1%
Activity (A549 [8]): 4.83%
Activity (A549 [9]): 3.97%
Activity (A549 [10]): 2.2%
Activity (A549 [11]): 3.96%
Activity (A549 [12]): 4.6%
Activity (A549 [13]): 34.1%
Activity (A549 [14]): 45.2%
Activity (A549 [15]): 50.9%
Activity (A549 [16]): 35%
Activity (A549 [17]): 31.2%
Activity (A549 [18]): 26%
Activity (A549 [19]): 28.9%
Activity (A549 [20]): 22.7%
Activity (A549 [21]): 21.9%
IC50 at 24 h [22]: > 10000 nM
inhibition [23]: 73%
IC50 [24]: 10 nM
IC50 (A549 [25]): 610 nM

Compound: O=C(NCCO)c1nc(Nc2n[nH]c3ccccc23)c2cc(Cl)ccc2n1
inhibition [23]: 3%

Compound: CN(C)CCCNC(=O)c1nc(Nc2n[nH]c3ccccc23)c2cc(Cl)ccc2n1
inhibition [23]: 11%

Compound: O=C(NC1CNC1)c1nc(Nc2n[nH]c3ccccc23)c2cc(Cl)ccc2n1
inhibition [23]: 10%

Compound: CC(C)[C@H](N)CNC(=O)c1nc(Nc2n[nH]c3ccccc23)c2cc(Cl)ccc2n1
inhibition [23]: 76%
IC50 [24]: 16 nM

Compound: Cc1cc(Nc2cc(Cc3ccccc3)nc(NC3CCNCC3)n2)n[nH]1
IC50 (A549 [27]): 2530 nM

Compound: CNC[C@@H](C)NC(=O)c1nc(Nc2n[nH]c3ccccc23)c2cc(Cl)ccc2n1
inhibition [23]: 27%

Compound: C[C@H]1CN(C(=O)c2nc(Nc3n[nH]c4ccccc34)c3cc(Cl)ccc3n2)CCN1
inhibition [23]: 3%

Compound: N[C@H](CNC(=O)c1nc(Nc2n[nH]c3ccccc23)c2cc(Cl)ccc2n1)c1ccccc1
inhibition [23]: 70%
IC50 [24]: 24 nM

Compound: CNCCNC(=O)c1nc(Nc2n[nH]c3ccccc23)c2cc(Cl)ccc2n1
inhibition [23]: 3%

Compound: CNC[C@H](C)NC(=O)c1nc(Nc2n[nH]c3ccccc23)c2cc(Cl)ccc2n1
inhibition [23]: 3%

Now from value to molecule, other results behind:

inhibition [23]: 4%
Compound: CN(C)CCNC(=O)c1nc(Nc2n[nH]c3ccccc23)c2cc(Cl)ccc2n1

inhibition [23]: 78%
IC50 [24]: 13 nM
IC50 (A549 [25]): 1900 nM
Compound: N[C@@H](CNC(=O)c1nc(Nc2n[nH]c3ccccc23)c2cc(Cl)ccc2n1)c1ccccc1
IC50 at 24 h [22]: > 10000 nM

inhibition [23]: 81%
IC50 (A549 [25]): 670 nM
IC50 (A549 [26]): 20 nM
Compound: Cc1nc(Nc2n[nH]c3c2CN(C(=O)N[C@H](CN(C)C)c2ccccc2)C3(C)C)c2sccc2n1 [PF-03758309]
IC50 at 24 h [22]: > 10000 nM

inhibition [23]: 77%
IC50 [24]: 9 nM
IC50 (A549 [25]): 2280 nM
Compound: N[C@H](CNC(=O)c1nc(Nc2n[nH]c3ccccc23)c2cc(Cl)ccc2n1)Cc1ccccc1
IC50 at 24 h [22]: > 10000 nM

inhibition [23]: 4%
Compound: O=C(c1nc(Nc2n[nH]c3ccccc23)c2cc(Cl)ccc2n1)N1CCNCC1

inhibition [23]: 15%
Compound: O=C(NCC1CNC1)c1nc(Nc2n[nH]c3ccccc23)c2cc(Cl)ccc2n1

inhibition [23]: 75%
IC50 [24]: 11 nM
Compound: N[C@@H](CNC(=O)c1nc(Nc2n[nH]c3ccccc23)c2cc(Cl)ccc2n1)Cc1ccccc1

inhibition [23]: 25%
Compound: C[C@H](N)CNC(=O)c1nc(Nc2n[nH]c3ccccc23)c2cc(Cl)ccc2n1

inhibition [23]: 2%
Compound: NCCNC(=O)c1nc(Nc2n[nH]c3ccccc23)c2cc(Cl)ccc2n1

inhibition [23]: 10%
Compound: C[C@@H]1CN(C(=O)c2nc(Nc3n[nH]c4ccccc34)c3cc(Cl)ccc3n2)CCN1

inhibition [23]: 35%
Compound: C[C@@H](N)CNC(=O)c1nc(Nc2n[nH]c3ccccc23)c2cc(Cl)ccc2n1
